In patent US6099845A, “Process for the preparation of Rhus verniciflua extract and anti-cancer composition containing same” (Forest Genetics Research Institute, priority 1997, dated 2000):
“Also recorded” adds a separate entry of the source.

Experiments:
cancer = conditions: cited from earlier work
angiogenesis = conditions: cited from earlier work
F9 teratocarcinoma cells = conditions: cited from earlier work
[1] = test system: blood vessel and capillary; conditions: cited from earlier work
[2] = test system: allergy and dermatopathies; conditions: cited from earlier work
[3] = test system: formation of peroxidized lipids; conditions: cited from earlier work
LamB1 gene = type: cell-based, mouse; conditions: F9 cells, 7 days; FIG. 8
cancer cells = conditions: cited from earlier work
[4] = DPPH free radical decolorization (anti-oxidative activity); type: biochemical; conditions: 0.04% ethanol solution, 30 min, room temperature, 517 nm
Method: DPPH(1,1-diphenyl-2-picrylhydrazyl) is a free radical which is very stable in an organic solution. […] Accordingly, it is advantageously employed in measuring anti-oxidative activity of a material.
DPPH was dissolved in absolute ethanol to a concentration of […]("DPPH ethanol solution"). To this solution, the extract of R. verniciflua obtained in Example 1 and Sesamol (Sigma, U.S.A.), a natural anti-oxidant were added to a concentration of 0.04%, respectively to obtain an "extract ethanol solution" and a "Sesamol ethanol solution".
2 ml of the DPPH ethanol solution was put into each of two 4 me disposable spectrophotometer cuvettes(Muller ratiolab, Germany). Then, 2 ml of the extract ethanol solution was placed in one cuvette and 2 ml of the Sesamol ethanol solution was put into the other cuvette. The mixtures were reacted at room temperature for 30 min. As a control, a cuvette containing 4 ml of the DPPH ethanol solution was used. The absorption of each cuvette was determined at 517 nm with a spectrophotometer(HP 8453 diode array spectrophotometer). The absorption of the extract ethanol solution was calibrated with the absorption of the control, and the capability of the extract ethanol solution to decolorize the purple color of the DPPH ethanol solution was calculated based on the calibrated absorption of the Sesamol ethanol solution.

CC1(C)CC[C@]2(C(=O)O)CC[C@]3(C)C(=CC[C@@H]4[C@@]5(C)CC[C@H](O)C(C)(C)[C@@H]5CC[C@]43C)[C@@H]2C1 [oleanolic acid]
anti-cancer activity (in words) (cancer): have anti-cancer activity | inhibitory activity on angiogenesis (in words) (angiogenesis): some inhibitory activity on angiogenesis | differentiation of F9 teratocarcinoma cells (in words) (F9 teratocarcinoma cells): capable of differentiating F9 teratocarcinoma cells into normal cells; also recorded: induce the differentiation of F9 teratocarcinoma cells by regulating the gene involved in the differentiation

O=C1c2ccc(O)cc2OC(c2ccc(O)c(O)c2)C1O (single isomer, unassigned) [fustin, 3,3',4',7-tetrahydroxyflavanone]
protecting blood vessel and capillary [1]: protecting blood vessel and capillary | inhibiting allergy and dermatopathies [2]: inhibiting allergy and dermatopathies | suppressing the formation of peroxidized lipids [3]: suppressing the formation of peroxidized lipids

CC1=C(/C=C/C(C)=C/C=C/C(C)=C/C(=O)O)C(C)(C)CCC1 [retinoic acid]
expression of LamB1 gene (northern blotting) (LamB1 gene): converts the gene of the cancer cell to express LamBl gene | inhibitory activity on angiogenesis (in words) (angiogenesis): inhibit angiogenesis | differentiation of cancer cells (in words) (cancer cells): induce the differentiation of cancer cells to normal cells | differentiation of F9 teratocarcinoma cells (in words) (F9 teratocarcinoma cells): transforms into a primitive developmental form

CC1CCC2(C(=O)O)CCC3(C)C(=CCC4C5(C)CCC(O)C(C)(C)C5CCC43C)C2C1C (stereo not shown) [urusolic acid]
anti-cancer activity (in words) (cancer): have anti-cancer activity | inhibitory activity on angiogenesis (in words) (angiogenesis): some inhibitory activity on angiogenesis | differentiation of F9 teratocarcinoma cells (in words) (F9 teratocarcinoma cells): capable of differentiating F9 teratocarcinoma cells into normal cells; also recorded: induce the differentiation of F9 teratocarcinoma cells by regulating the gene involved in the differentiation

O=c1c(O)c(-c2ccc(O)c(O)c2)oc2cc(O)ccc12 (single isomer, unassigned) [Fisetin, 3,3',4',7-tetrahydroxyflavone]
protecting blood vessel and capillary [1]: protecting blood vessel and capillary | inhibiting allergy and dermatopathies [2]: inhibiting allergy and dermatopathies | suppressing the formation of peroxidized lipids [3]: suppressing the formation of peroxidized lipids

C=C1CCC(O)CC1=CC=C1CCCC2(C)C1CCC2C(C)CCCC(C)C (stereo not shown) [vitamin D3]
inhibitory activity on angiogenesis (in words) (angiogenesis): inhibit angiogenesis | differentiation of cancer cells (in words) (cancer cells): induce the differentiation of cancer cells to normal cells

Oc1ccc2c(c1)OCO2 [Sesamol]
anti-oxidative activity relative to Sesamol's 100 [4]: 100
